For one assay, the target named is T1, Cytochrome P450 1A2 (Homo sapiens, UniProt P05177).
T1 sequence (P05177 whole entry): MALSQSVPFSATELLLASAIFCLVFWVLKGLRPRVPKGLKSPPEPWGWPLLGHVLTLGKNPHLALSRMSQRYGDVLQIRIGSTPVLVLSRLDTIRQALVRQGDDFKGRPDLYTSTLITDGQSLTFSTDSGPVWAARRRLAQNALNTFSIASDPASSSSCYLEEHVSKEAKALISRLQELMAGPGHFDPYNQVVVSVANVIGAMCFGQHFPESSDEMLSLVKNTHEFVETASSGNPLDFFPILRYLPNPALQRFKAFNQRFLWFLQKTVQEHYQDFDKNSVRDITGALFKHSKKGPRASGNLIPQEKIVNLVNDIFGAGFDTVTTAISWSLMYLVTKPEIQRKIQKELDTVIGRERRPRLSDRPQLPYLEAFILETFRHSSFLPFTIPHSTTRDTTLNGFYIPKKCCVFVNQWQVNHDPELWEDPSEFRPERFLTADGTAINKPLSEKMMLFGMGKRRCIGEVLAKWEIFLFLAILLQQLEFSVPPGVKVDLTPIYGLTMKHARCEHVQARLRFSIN
Put plainly: Inhibition of CYP1A2. Type of assay: ADME.

The next assay addresses Dipeptidyl peptidase 4 (Homo sapiens, UniProt P27487). Nature of the assay: Inhibition of DPP4 in human plasma assessed as formation of 7-amino-4-methylcoumarin from glycyl-L-proline 4-methylcoumaryl-7-amide by fluorescence assay.
In another assay the target is Cytochrome P450 3A4 (Homo sapiens, UniProt P08684). Nature of the assay: Inhibition of CYP3A4. In kind it is ADME.
Another assay concerns the target Cytochrome P450 2D6 (Homo sapiens, UniProt P10635). Nature of the assay: Inhibition of CYP2D6. In kind it is ADME.

Dipeptidyl peptidase 4, sequence (P27487 whole entry): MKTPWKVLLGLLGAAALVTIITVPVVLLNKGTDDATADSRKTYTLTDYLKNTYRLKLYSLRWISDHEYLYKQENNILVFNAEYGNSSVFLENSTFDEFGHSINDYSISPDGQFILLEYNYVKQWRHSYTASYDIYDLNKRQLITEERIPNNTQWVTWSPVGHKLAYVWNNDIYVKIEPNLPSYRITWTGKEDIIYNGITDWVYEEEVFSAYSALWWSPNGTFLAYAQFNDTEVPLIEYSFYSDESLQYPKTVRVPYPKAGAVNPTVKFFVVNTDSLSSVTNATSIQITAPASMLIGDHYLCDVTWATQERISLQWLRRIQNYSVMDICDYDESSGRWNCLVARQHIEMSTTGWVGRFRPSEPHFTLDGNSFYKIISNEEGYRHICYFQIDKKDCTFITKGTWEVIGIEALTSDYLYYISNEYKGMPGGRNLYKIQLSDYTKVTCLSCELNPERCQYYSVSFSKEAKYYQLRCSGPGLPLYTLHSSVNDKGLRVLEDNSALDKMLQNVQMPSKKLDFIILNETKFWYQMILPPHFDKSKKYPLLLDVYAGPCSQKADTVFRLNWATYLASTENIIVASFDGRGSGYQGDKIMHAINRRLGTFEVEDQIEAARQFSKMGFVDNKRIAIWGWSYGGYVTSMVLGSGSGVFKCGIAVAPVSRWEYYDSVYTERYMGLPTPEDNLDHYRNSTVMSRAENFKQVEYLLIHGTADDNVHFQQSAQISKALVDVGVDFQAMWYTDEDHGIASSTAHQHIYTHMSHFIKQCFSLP
Cytochrome P450 2D6, sequence (P10635 whole entry): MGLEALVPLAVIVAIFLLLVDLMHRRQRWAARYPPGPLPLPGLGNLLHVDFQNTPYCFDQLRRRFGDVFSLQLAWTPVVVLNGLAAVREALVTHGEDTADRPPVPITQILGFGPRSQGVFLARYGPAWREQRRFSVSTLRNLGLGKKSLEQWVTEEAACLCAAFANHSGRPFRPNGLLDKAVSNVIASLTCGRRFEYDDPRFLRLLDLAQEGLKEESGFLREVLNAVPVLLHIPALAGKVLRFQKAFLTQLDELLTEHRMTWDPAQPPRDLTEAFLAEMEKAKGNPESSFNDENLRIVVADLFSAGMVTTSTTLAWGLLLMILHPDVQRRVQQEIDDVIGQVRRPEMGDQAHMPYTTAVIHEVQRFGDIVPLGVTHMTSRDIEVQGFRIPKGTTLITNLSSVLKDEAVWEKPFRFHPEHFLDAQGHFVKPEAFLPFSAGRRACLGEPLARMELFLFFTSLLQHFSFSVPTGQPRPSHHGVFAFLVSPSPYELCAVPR
Cytochrome P450 3A4, sequence (P08684 whole entry): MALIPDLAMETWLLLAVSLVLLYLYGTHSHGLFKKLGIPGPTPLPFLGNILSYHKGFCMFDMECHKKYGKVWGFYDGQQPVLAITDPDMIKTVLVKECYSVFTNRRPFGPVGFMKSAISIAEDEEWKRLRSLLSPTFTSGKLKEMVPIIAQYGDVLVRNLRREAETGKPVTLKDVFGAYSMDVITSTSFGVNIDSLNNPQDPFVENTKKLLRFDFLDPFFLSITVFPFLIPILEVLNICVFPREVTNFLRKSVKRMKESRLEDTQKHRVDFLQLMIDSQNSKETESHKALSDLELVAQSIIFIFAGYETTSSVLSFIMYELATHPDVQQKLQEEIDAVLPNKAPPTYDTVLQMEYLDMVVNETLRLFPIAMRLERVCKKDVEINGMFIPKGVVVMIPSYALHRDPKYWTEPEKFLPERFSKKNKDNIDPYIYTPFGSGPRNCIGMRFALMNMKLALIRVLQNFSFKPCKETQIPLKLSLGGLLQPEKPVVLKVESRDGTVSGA

With `Cn1c(=O)c2c(cc(N3CCC[C@@H](N)C3)n2Cc2cc(F)ccc2C#N)n(C)c1=O`, the IC50 – broadly, the point on the concentration scale where inhibition reaches its midpoint – was 14.7 µM against Cytochrome P450 1A2, 0.34 nM on Dipeptidyl peptidase 4, 1600 nM against Cytochrome P450 3A4 and 7.5 µM against Cytochrome P450 2D6.

As for `CC[C@]1(N)CCCN(c2cc3c(c(=O)n(C)c(=O)n3C)n2Cc2cc(F)ccc2C#N)C1`, on Dipeptidyl peptidase 4, the IC50 was above 1000 nM.

On to `CC[C@@]1(N)CCCN(c2cc3c(c(=O)n(C)c(=O)n3C)n2Cc2cc(F)ccc2C#N)C1`, for which, on Dipeptidyl peptidase 4, the concentration for half-maximal inhibition (IC50) came to 26 nM.

For the origin of these results see ChEMBL document CHEMBL1817578, “2-({6-[(3R)-3-amino-3-methylpiperidine-1-yl]-1,3-dimethyl-2,4-dioxo-1,2,3,4-tetrahydro-5H-pyrrolo[3,2-d]pyrimidine-5-yl}methyl)-4-fluorobenzonitrile (DSR-12727): a potent, orally active dipeptidyl peptidase IV inhibitor without mechanism-based inactivation of CYP3A” (Bioorg Med Chem, 2011).
